The test system of assay [1] is peripheral lymphocyte counts. As to the kind of experiment: Measurement of circulating lymphocytes after oral administration (mice). In kind it is in vivo. Particulars: Mus musculus, C57BL/6NCrl mice, 30 mg/kg p.o., 24 hours, vs mean counts of untreated animals, mean ± STDEV, read-out: Residual Lymphocyte Counts 24 hours after p.o. dosing. As to the method:
(§1) The compounds of the invention, e.g. compounds of formula (I) typically induce the depletion of blood lymphocyte as may be determined in the assay described below. Moreover, compounds of the invention, e.g. compounds of formula (I) are typically efficacious in the said assay also when administered via the per oral route of administration.
(§2) Measurement of Circulating Lymphocytes:
(§3) The test compounds (or salts thereof) are dissolved in a vehicle such as water, saline, PEG (polyethylene glycol) 200, or PBS (phosphate buffered saline). Adult mice (C57BU6NCrl strain, female, 18-20 g) or rats (Lewis strain, male, 6-12 weeks old) are administered up to 60 mg/kg of the test compounds in 10 ml/kg (C57BU6NCrl mice) or 2 ml/kg (Lewis rats) vehicle via per oral application. The vehicle or a reference salt and FTY720 (0.3 mg/kg) are used as negative and positive controls, respectively. Blood is collected from the sublingual vein at single time points, e.g. 14 or 24 hours after the test compound administration, under short isoflurane anesthesia. Two to three animals are used in each group. Whole blood samples are subjected to hematology analysis. Peripheral lymphocyte counts are determined using an automated analyzer. The Haemathology System uses a combination of light scatter, cytochemical staining and nuclear density on two independent channels to measure the total and differential white cell counts. The reduction of lymphocytes provoked by each test compound is calculated by comparing the lymphocyte counts measured after each treatment to the mean lymphocyte counts measured in five to eight untreated mice or rats, respectively. The data are presented as mean±STDEV.

The target in the next assay is human S1P1 receptors (Homo sapiens (Human), UniProt P21453). As to the kind of experiment: Human S1P1 Receptor Calcium FLIPR Antagonist Assay (HeLa Gα16 S1P1). Type of assay: cell-based. Particulars: relative antagonism vs probing agonist GNF-AC-1 at EC80, HeLa-S1P1/Gα16 cells. From the text: Human S1P1 Receptor Calcium FLIPR Antagonist Assay
Chain of human S1P1 receptors (P21453 whole entry): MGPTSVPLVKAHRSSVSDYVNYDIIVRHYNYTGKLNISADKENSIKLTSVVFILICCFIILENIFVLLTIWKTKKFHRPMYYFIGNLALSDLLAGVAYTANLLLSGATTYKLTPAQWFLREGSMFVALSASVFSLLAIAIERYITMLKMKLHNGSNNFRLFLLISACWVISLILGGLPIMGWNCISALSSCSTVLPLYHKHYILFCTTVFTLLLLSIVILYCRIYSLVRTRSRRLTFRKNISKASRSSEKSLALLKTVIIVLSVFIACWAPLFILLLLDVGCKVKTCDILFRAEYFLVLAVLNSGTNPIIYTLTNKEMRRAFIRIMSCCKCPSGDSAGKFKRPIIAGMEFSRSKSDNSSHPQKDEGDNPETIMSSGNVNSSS
The assay measures intracellular changes of Ca^2+ mediated by the synthetic probing agonist 3-{[2-(2-Trifluoromethyl-biphenyl-4-yl)-benzo[b]thiophen-5-ylmethyl]-amino}-propionic acid (GNF-AC-1) in the HeLa-S1P1/Gα16 cell clone 1: HeLa (human cervix carcinoma, ATCC CCL2) cells stably expressing N-terminally myc-tagged human S1P1 receptors (GenBank™ accession No. NM_001400; UNIPROT P21453) and promiscuous Gα16 protein (GenBank™ accession number M63904, Swissprot P30679) are cultured at 37° C., 5% CO2, and 95% relative humidity. The cells are plated in 384 well black plates (10′000 cells per well). After 24 hours the cells are loaded with Fluo-4-AM (1.6 μM in HBSS and 2.5 mM probenicid) for 1 hour at 37° C. After washing, the cells are transferred to the FLIPR. The test compounds are added at different concentrations (≦100 μM) in HBSS in the presence of 0.1% BSA and changes in fluorescence are recorded (indication of agonism). The probing agonist is added 20-30 minutes afterwards to the wells at a concentration giving 80% of the maximal activity (EC80). After each addition, time points are collected as follows: 20 time points (2 seconds) before the addition of the agonist (Fmin) and 60 time points (1 or 2 seconds) after the addition of the probing agonist. This allows the determination of the maximal fluorescence (Fmax). The ratio (Fmax−Fmin)/Fmin is plotted against the log of the concentration of the test compounds and the IC50 (relative antagonism) is calculated using the XLfit-4 software. […] A concentration-response curve of the probing agonist is determined on each plate in parallel.

Assay [2] relates to peripheral lymphocyte counts. Put plainly: Measurement of circulating lymphocytes after oral administration (rats). The settings on record: Lewis rats, 30 mg/kg p.o., vs mean counts of untreated animals, mean ± STDEV. In kind it is in vivo. As to the method: as §1, §2, §3

`Cc1cc([C@H](Nc2ccc(C)c(CN3CC[C@@H](C(=O)O)C3)c2)C(F)(F)F)ccc1Cl` [Example 21, (R)-1-{5-[(S)-1-(4-Chloro-3-methyl-phenyl)-2,22-trifluoro-ethylamino]-2-methyl-benzyl}-pyrrolidine-3-carboxylic acid]: the response vs control in vivo at 30 mg/kg in assay [1] worked out at 17.8%. Also, on human S1P1 receptors, the IC50 (as a rule, the midpoint of a concentration-inhibition curve) is 1 nM.

For the molecule `CC[C@@H](Nc1ccc(C)c(CN2CC[C@@H](C(=O)O)C2)c1)c1ccc(Cl)c(C)c1` [Example 23, (R)-1-{5-[(R)-1-(4-Chloro-3-methyl-phenyl)-propylamino]-2-methyl-benzyl}-pyrrolidine-3-carboxylic acid], the response vs control in vivo at 30 mg/kg in assay [1] was determined as 25.1%. Moreover, at human S1P1 receptors, the IC50 worked out at 1 nM.

On to `Cc1cc([C@H](Nc2ccc(Cl)c(CN3CC[C@@H](C(=O)O)C3)c2)C(F)(F)F)ccc1Cl` [Example 29, (R)-1-{2-Chloro-5-[(S)-1-(4-chloro-3-methyl-phenyl)-2,2,2-trifluoro-ethylamino]-benzyl}-pyrrolidine-3-carboxylic acid], for which the response vs control in vivo at 30 mg/kg in assay [1] is 35.6%. Further, the IC50 on human S1P1 receptors came out at 0.4 nM.

As to `Cc1cc([C@H](Nc2ccc(C)c(CN3CC[C@@H](C(=O)O)C3)c2C)C(F)(F)F)ccc1Cl` [Example 30, (R)-1-{3-[(S)-1-(4-Chloro-3-methyl-phenyl)-2,2,2-trifluoro-ethylamino]-2,6-dimethyl-benzyl}-pyrrolidine-3-carboxylic acid], the response vs control in vivo at 30 mg/kg in assay [1] came out at 19.4%. Also, in assay [2], the “Residual Lymphocyte Counts 24 hours after p.o. dosing” value was determined as 26.9 ± 13.0%. In addition, the IC50 on human S1P1 receptors was 0.9 nM.

For the molecule `Cc1cc([C@H](Nc2ccc(C)c(CN3CC(C(=O)O)C3)c2C)C(F)(F)F)ccc1Cl` [Example 31, 1-{3-[(S)-1-(4-Chloro-3-methyl-phenyl)-2,2,2-trifluoro-ethylamino]-2,6-dimethyl-benzyl}-azetidine-3-carboxylic acid], the response vs control in vivo at 30 mg/kg in assay [1] stood at 23.4%. Also, at human S1P1 receptors, the concentration for half-maximal inhibition (IC50) is 1 nM.

In the case of `CC[C@@H](Nc1ccc(C)c(CN2CC[C@@H](C(=O)O)C2)c1C)c1ccc(Cl)c(C)c1` [Example 32, (R)-1-{3-[(R)-1-(4-Chloro-3-methyl-phenyl)-propylamino]-2,6-dimethyl-benzyl}-pyrrolidine-3-carboxylic acid], the response vs control in vivo at 30 mg/kg in assay [1] was determined as 17%. The IC50 at human S1P1 receptors turned out to be 0.8 nM.

Turning to `CC[C@@H](Nc1ccc(C)c(CN2CC(C(=O)O)C2)c1C)c1ccc(Cl)c(C)c1` [Example 33, 1-{3-[(R)-1-(4-Chloro-3-methyl-phenyl)-propylamino]-2,6-dimethyl-benzyl}-azetidine-3-carboxylic acid], the response vs control in vivo at 30 mg/kg in assay [1] is 16.2%. For the same molecule, on human S1P1 receptors, the half-inhibitory concentration (IC50) stood at 0.6 nM.

`CCc1ccc(N[C@@H](c2ccc(Cl)c(C)c2)C(F)(F)F)cc1CN1CC[C@@H](C(=O)O)C1` [Example 34, (R)-1-{5-[(S)-1-(4-Chloro-3-methyl-phenyl)-2,2,2-trifluoro-ethylamino]-2-ethyl-benzyl}-pyrrolidine-3-carboxylic acid]: in assay [1], the response vs control in vivo at 30 mg/kg came to 24.2%. The IC50 on human S1P1 receptors was found to be 0.8 nM.

Take `CC[C@@H](Nc1ccc(C)c(CN2CC(C(=O)O)C2)c1)c1cc(C)c(Cl)c(C)c1` [Example 41, 1-{5-[(R)-1-(4-Chloro-3,5-dimethyl-phenyl)-propylamino]-2-methyl-benzyl}-azetidine-3-carboxylic acid]: the response vs control in vivo at 30 mg/kg in assay [1] is 20.2%. Further, the half-inhibitory concentration (IC50) at human S1P1 receptors stood at 1.3 nM.

Turning to `CC[C@@H](Nc1ccc(C)c(CN2CC[C@@H](C(=O)O)C2)c1)c1cc(C)c(Cl)c(C)c1` [Example 42, (R)-1-{5-[(R)-1-(4-Chloro-3,5-dimethyl-phenyl)-propylamino]-2-methyl-benzyl}-pyrrolidine-3-carboxylic acid], the response vs control in vivo at 30 mg/kg in assay [1] was found to be 19.4%. Besides, the “Residual Lymphocyte Counts 24 hours after p.o. dosing” value in assay [2] is listed as 22.2% ± 6.7. In addition, at human S1P1 receptors, the half-maximal inhibitory concentration (IC50) is 1 nM.

For the molecule `CC[C@@H](Nc1ccc(Cl)c(CN2CC[C@@H](C(=O)O)C2)c1)c1cc(C)c(Cl)c(C)c1` [Example 43, (R)-1-{2-Chloro-5-[(R)-1-(4-chloro-3,5-dimethyl-phenyl)-propylamino]-benzyl}-pyrrolidine-3-carboxylic acid], in assay [1], the response vs control in vivo at 30 mg/kg was 21.8%. In addition, the half-inhibitory concentration (IC50) on human S1P1 receptors was 0.8 nM.

On to `CC[C@@H](Nc1cc(CN2CC[C@@H](C(=O)O)C2)c(Cl)cn1)c1ccc(Cl)c(C)c1` [Example 55, (R)-1-{5-Chloro-2-[(R)-1-(4-chloro-3-methyl-phenyl)-propylamino]-pyridin-4-ylmethyl}-pyrrolidine-3-carboxylic acid], for which the response vs control in vivo at 30 mg/kg in assay [1] was 43.6%. The half-maximal inhibitory concentration (IC50) on human S1P1 receptors is 0.5 nM.

With `CC[C@@H](Nc1ccc(Cl)c(CN2CC(C(=O)O)C2)c1)c1cc(C)c(Cl)c(C)c1` [Example 61, 1-{2-Chloro-5-[(R)-1-(4-chloro-3,5-dimethyl-phenyl)-propylamino]-benzyl}-azetidine-3-carboxylic acid], in assay [1], the response vs control in vivo at 30 mg/kg is 16.2%. Besides, the IC50 on human S1P1 receptors amounted to 1.6 nM.

As for `CC[C@@H](Nc1ccc(Cl)c(CN2CC(C(=O)O)C2)c1)c1ccc(Cl)c(C)c1` [Example 62, 1-{2-Chloro-5-[(R)-1-(4-chloro-3-methyl-phenyl)-propylamino]-benzyl}-azetidine-3-carboxylic acid], the response vs control in vivo at 30 mg/kg in assay [1] came out at 31.5%. Moreover, on human S1P1 receptors, the half-inhibitory concentration (IC50) worked out at 0.9 nM.

As to `Cc1cc([C@H](Nc2ccc(Cl)c(CN3CC(C)(C(=O)O)C3)c2)C(F)(F)F)ccc1Cl` [Example 65, 1-{2-Chloro-5-[(S)-1-(4-chloro-3-methyl-phenyl)-2,2,2-trifluoro-ethylamino]-benzyl}-3-methyl-azetidine-3-carboxylic acid], the response vs control in vivo at 30 mg/kg in assay [1] was found to be 22.6%. The half-maximal inhibitory concentration (IC50) on human S1P1 receptors came out at 0.2 nM.

As for `CC[C@@H](Nc1ccc(Cl)c(CN2CC(C)(C(=O)O)C2)c1)c1cc(C)c(Cl)c(C)c1` [Example 66, 1-{2-Chloro-5-[(R)-1-(4-chloro-3,5-dimethyl-phenyl)-propylamino]-benzyl}-3-methyl-azetidine-3-carboxylic acid], the response vs control in vivo at 30 mg/kg in assay [1] was 19.4%.

For `Cc1cc([C@H](Nc2ccc(C)c(CN3CC(C(=O)O)C3)c2)C(F)(F)F)ccc1Cl` [Example 70, 1-{5-[(S)-1-(4-Chloro-3-methyl-phenyl)-2,2,2-trifluoro-ethylamino]-2-methyl-benzyl}-azetidine-3-carboxylic acid], the response vs control in vivo at 30 mg/kg in assay [1] was determined as 20.2%. For the same molecule, the IC50 on human S1P1 receptors is 0.1 nM.

In the case of `Cc1cc([C@H](Nc2cc(CN3CC[C@@H](C(=O)O)C3)c(Cl)cn2)C(F)(F)F)ccc1Cl` [Example 84, (R)-1-{5-Chloro-2-[(S)-1-(4-chloro-3-methyl-phenyl)-2,2,2-trifluoro-ethylamino]-pyridin-4-ylmethyl}-pyrrolidine-3-carboxylic acid], the “Residual Lymphocyte Counts 24 hours after p.o. dosing” value in assay [2] is on record as 16.8% ± 7.2. The concentration for half-maximal inhibition (IC50) at human S1P1 receptors came out at 0.4 nM.

With `Cc1cc([C@H](Nc2cc(CNCCC(=O)O)c(Cl)cn2)C(F)(F)F)ccc1Cl` [Example 85, 3-({5-Chloro-2-[(S)-1-(4-chloro-3-methyl-phenyl)-2,2,2-trifluoro-ethylamino]-pyridin-4-ylmethyl}-amino)-propionic acid], in assay [2], the “Residual Lymphocyte Counts 24 hours after p.o. dosing” value is recorded as 11.6% ± 0.3. Also, the IC50 on human S1P1 receptors stood at 0.9 nM.

The values above are taken from US8791100B2 (Novartis AG, priority 2010, dated 2014).
